In US6794148B2, “High speed, automated, continuous flow, multi-dimensional molecular selection and analysis” (PerSeptive Biosystems, Inc., priority 1995, dated 2004):
No end group written: not given here.

Legend:
IgG [1] = assay: IgG purification from human serum on POROS-immobilized peptide column; format: binding; settings: for IgG binding capacity of POROS-peptide column: peptide immobilized on POROS AL via N-terminal end
Method: 1 g POROS™ AL (aldehyde) was suspended in 10 mM PBS (pH 7.5) containing 100 mg sodium cyanoborohydride (NaCNBH3). 5 to 20 mg of each of the peptides selected by various screening procedures was added to the resin and the mixture was shaken overnight at room temperature. 100 mg sodium borohydride (NaBH4) was then added and the mixture was shaken for another 2 hrs. The beads were then washed with PBS and packed into 4.6 mm D×100 mm L column using POROS™ Self Pack® device.
100 μl of 1:10 diluted serum was injected onto the peptide column which was equilibrated with 20 mM tris (pH 8.0) at 5 ml/min. The bound proteins were eluted with 0-1 M NaCl gradient in 15 CVs. Fractions were collected manually and concentrated by Speed Vac for subsequent analysis by SDS-polyacrylamide gel electrophoresis.
The […] (SEQ ID NO: 8) peptide with heme group was immobilized on POROS™AL® (aldehyde) via the N-terminal end. This POROS™-peptide conjugate was used to separate IgG from serum at pH 8 under a 0-1 M NaCl gradient. […] To determine the nature of interaction, the purification profile of IgG separated on the POROS™-peptide column was compared with the IgG purified on standard ion exchange columns such as POROS™-CM and POROS™ HQ. […] The effect of the varying loading densities of peptide (from 10 mg/g POROS™ to 100 mg/g POROS™) on specificity and capacity for IgG binding was also investigated. The specificity of the peptide for IgG binding was also investigated. […] At low loading density (10 mg/g POROS™) IgG bound primarily via ionic interaction requiring elution of bound IgG with salt gradient. At higher loading density ([…]) IgG bound strongly and eluted with acid buffer. The binding capacity varied from 1-2 mg/ml column volume at lower ligand density to 30 mg/ml column volume at higher ligand densities.
A simplified analog of the heme peptide ([…]) (SEQ ID NO: 9) was synthesized and immobilized on POROS™ AL via the N-terminal end. […] The bound IgG was eluted from the GAQGHTVBK (SEQ ID NO: 9)-POROS™ column with 100 mM NaCl. The IgG binding capacity was determined to be 5 mg/ml column volume. Loading densities from 20 mg/g to 40 mg peptide /g POROS™ were evaluated. At these ligand densities, the specificity of IgG binding was not affected, but the capacity was reduced.

HSA = biological target: T1, HSA (Homo sapiens, UniProt P02768); assay: HSA binding to heme peptide POROS; settings: only under very hydrophobic conditions (200 mM sodium sulphate, pH 7 buffer)
T1 construct: purchased Sigma Chemical Co (St. Louis, Mo.)

[2] = tested on: mouse IgG (whole fragment); assay: Solution phase and solid phase peptide screening of natural peptide library; format: binding
Method: (§1) 5 mg each of either mouse IgG (whole) or the Fc fragment was incubated with 20 mg of natural library and protein A and G digests, respectively. The mixture was dissolved in 1 ml of a mixture of 25 mM sodium phosphate buffer and 0.15 M NaCl (pH 7) overnight at 4° C. After incubation, several chromatographic runs through the Superdex SEC and RP columns were conducted with 200 of the protein and peptide mixture injected through the Superdex column during each run. The flow rate for the Superdex column was 0.75 m/min with the 25 mM sodium phosphate buffer and 0.15 M NaCl (pH 7) mixture. The early eluting protein peak was collected directly onto the RP column. The remaining portion of the peak was washed off the SEC. The mouse IgG (whole) or Fc fragment and its associated peptides were then eluted from the RP column under the following conditions:
(§2) The IgG activated POROS™ was packed into 4.6 mm D×100 mm L PEEK columns using Self Pack® assembly on BioCAD™ at 20 ml/min flow rate. 5 to 50 mgs peptide library (natural peptide library or polyclonal antibody digest) dissolved in 0.5 to 2.5 ml of 10 mM PBS (pH 7.5) was injected onto the column at flow rate of 0.5 ml/min. After wash with 5 CVs of PBS, the bound portion was eluted with 10 mM HCl and collected manually. […] The fractions corresponding to the bound peptides were concentrated in Speed Vac and analyzed by MALDI-TOF and Edman sequencing. […]

IgG [3] = assay: IgG purification from human serum on POROS-immobilized peptide column; format: binding; settings: immobilized via carboxyl groups of heme and free C-terminal end
IgG [4] = assay: Solid phase screening of polyclonal antibody digests on immobilized IgG column; format: binding; settings: tryptic digests of anti-IgG (Fc specific) polyclonal antibodies
Method: […] POROS™ EP (epoxy) was suspended in 5 ml 0.1 M phosphate buffer (pH 9) containing 20 mg IgG. After the beads were well suspended, 4 ml 0.1 M phosphate buffer (pH 9) containing 2 M NA2SO4 were added to the mixture and it was shaken overnight at room temperature. The beads were then washed with 10 mM PBS (pH 7.5) and stored in the refrigerator before they were packed into columns.
as §2, with “manually. The fraction was concentrated down to approximately 500 μl and at least 80% of it was injected onto a 4.6 mm D×250 mm L Vydac C18 column at 1 m/min. The RP column was equilibrated with 0.1% TFA/DIW and peptides were eluted with 15 CVs of a 0-40% acetonitrile gradient at flow rate of 1 ml/min.” for “manually.”
Polyclonal antibodies are an interesting and logical source of peptides since they have specific antigen binding sites. […] The amino acid sequence was determined to be […] […]

mouse IgG, Fc fragment = assay: Binding of mouse IgG Fc fragment on POROS 19-mer peptide column; settings: peptide synthesized directly on POROS NH2 resin via C-terminal end; eluted with acid buffer
Method: (§3) The 19-mer peptide ([…]) (SEQ ID NO: 7) selected from protein A and G digests was directly synthesized on 20 μm amine-functionalized™ particles by standard FMOC chemistry. About 700 mg of resin was dry packed into a 4.6 mm D×50 mm L PEEK column equipped with 2 μm frits. The packed column was attached with appropriate adapters to a PerSeptive Biosystems 9050 plus continuous flow peptide synthesizer. Upon completion of synthesis, the resin was dried and deprotected using 95% TFA/5% triisopropylsilane for 24 hrs. The final peptide-support conjugate was packed using POROS™ Self Pack® column packing device at flow rate 10 ml/min onto 4.6 mm D×50 mm L column for evaluation as affinity supports.
(§4) The 19-mer peptide column (4.6 mm D×50 mm L) was equilibrated with 20 CVs of equilibration buffer, 20 mM tris (pH 7). About 500 μl of 1 mg/ml of each of the following samples was injected onto the 19-mer peptide column (4.6 mm D×50 mm L): 1) pure IgGs from either human or mouse or chicken, 2) IgA (whole molecule), 3) human serum, 4) fetal bovine serum (1:10 dilution), or 5) 500 μl of 1 mg/ml mouse […]. After injection, the column was washed with 20 CVs of a mixture of 20 mM tris buffer and 0.4 M NaCl (pH 7). The remaining bound proteins were eluted with 20 CVs of 12 mM HCl. […] The bound fractions were collected and analyzed by SDS-Polyacrylamide gel electrophoresis.

IgG [5] = assay: Immunoglobulin class and species selectivity of POROS 19-mer peptide column; format: binding
Method: as §3, §4

mouse IgG (Fc fragment) = assay: Solution phase peptide screening (SEC - reversed phase) of protein A and G digests; format: binding; settings: native and denatured recombinant protein A and G digests
Method: as §1
Fractions corresponding to bound peptide peaks were lyophilized and redissolved in 1001 of 0.1% TFA/DIW for mass spec analysis by MALDI-TOF.

Q: Which “selectivity for IgG from serum versus ion exchange columns” value (IgG [1]; compared with POROS-CM and POROS HQ, similar conditions) does the source give for “CAQCHTVEK (cysteine pairing not given here; also: heme group) [tryptic digest peptide of cytochrome c with heme group, immobilized on POROS AL]” here?
A: Its value is “higher selectivity for IgG from serum than either of the ion exchange columns”.

Q: What about the “IgG binding capacity at higher ligand densities” value (IgG [1]; higher loading density (100 mg/mg)) of the same sequence?
A: The value was 30 mg/ml column volume.

Q: And the “IgG binding capacity at lower ligand density” value (IgG [1]; low loading density (10 mg/g POROS))?
A: Its value is 1-2 mg/ml column volume.

Q: And the “purity of IgG purified from serum” value (IgG [1]; pH 8, 0-1 M NaCl gradient, versus POROS-Protein A)?
A: The value was “comparable purity to that of IgG separated on POROS™-Protein A column”.

Q: And the “IgG binding capacity of POROS-peptide column” value (IgG [1]; pH 8)?
A: Its value is 10 mg/ml column volume.

Q: What about the “binding to HSA” value (HSA) of the same sequence?
A: The value was “bound very weakly”.

Q: What about the “selected as binder in library screening” value [2] of the same sequence?
A: Its value is “yielded one peptide”.

Q: And the “IgG binding when immobilized via carboxyl groups” value (IgG [3])?
A: Its value is “no IgG binding”.

Q: How did the “specificity of IgG binding from human serum” value (IgG [1]; pH 8, immobilized on POROS via N-terminal end) turn out when “GAQGHTVEK (OTHER INFORMATION: Description of Artificial Sequence: synthetic peptide) [simplified analog of the heme peptide; also isolated from polyclonal antibody digests]” was run?
A: Its value is “bound specifically”.

Q: What about the “IgG binding capacity of POROS-peptide column” value (IgG [1]; pH 8) of the same sequence?
A: The value was 5 mg/ml column volume.

Q: What about the “selectivity of peptide isolated from denatured antibody digest” value (IgG [4]) of the same sequence?
A: Its value is “selective for IgG”.

Q: How did the “binding of mouse IgG Fc fragment (capacity and selectivity)” value (mouse IgG, Fc fragment) turn out when “TVTEKPEVIDASELTPAVT (also: synthesized on POROS) [19-mer peptide selected from protein A and G digests, synthesized on POROS]” was run?
A: Its value is “low capacity but high selectivity”.

Q: And the “selectivity IgG versus IgA” value (IgG [5]; POROS 19-mer peptide column)?
A: Its value is “more selective for IgG than IgA”.

Q: And the “species selectivity of IgG binding” value (IgG [5]; human versus rabbit, goat or mouse IgG)?
A: The value was “Human IgG bound more selectively”.

Q: What about the “selected as binder in solution phase screening” value (mouse IgG (Fc fragment)) of the same sequence?
A: Its value is “identified”.
